In paper PMC9415646, “Improving Aqueous Solubility and In Vitro Pharmacokinetic Properties of the 3-Nitroimidazo[1,2-a]pyridine Antileishmanial Pharmacophore” (Pharmaceuticals, 2022):

Key:
[1] = Cytotoxicity evaluation on HepG2 cell line (MTT); type: cell-based; details: human, HepG2 cells
[2] = system: L. infantum axenic amastigotes; assay: Antileishmanial activity on L. infantum axenic amastigotes (luciferase assay); type: cell-based; details: Leishmania infantum, 48 h, read-out: EC50 L. infantum Axenic Ama.
[3] = system: L. infantum intracellular amastigotes; assay: Antileishmanial activity on L. infantum intracellular (intra-THP1 macrophage) amastigotes; type: cell-based; details: Leishmania infantum, THP-1; intramacrophage (THP1) amastigotes, 120 h; read-out: EC50 L. infantum Intra. Ama.
Description: The undifferentiated THP1 human monocyte cells (acute monocytic leukemia cell line purchased from ATCC, ref TIB-202) were grown in RPMI 1640 medium (Life Technologies, Saint-Aubin, France) supplemented with 10% FCS (Life Technologies, Saint-Aubin, France), 100 U/mL penicillin, 100 µg/mL streptomycin and 2 mM L-glutamine at 37 °C, 5% CO2. The culture was maintained between 3.10^5 and 1.10^6 cells/mL. The in vitro evaluation of the antileishmanial activity on intracellular amastigote forms of the tested compound was assessed as below.
Briefly, 200 μL of THP-1 cells with Phorbol 12-Myristate 13-Acetate (final concentration 50 ng/mL) were seeded in 96-well plates at an average density of 0.77 × 10^5 cells/mL and incubated for 96 h at 37 °C, 5% CO2. Promastigotes were centrifuged at 3000 rpm for 10 min and the supernatant replaced by the same volume of complete RPMI pH 5.4 and incubated for 24 h at 27 °C. Differentiated THP-1 cells were then infected by acidified promastigotes with an infection ratio of twenty parasites for one macrophage and incubated for 24 h at 37 °C, 5% CO2.
• Luciferase activity and determination of EC50 were performed as above.

[4] = Redox potential of the nitro group by cyclic voltammetry; type: physicochemical; details: cyclic voltammetry in DMSO, corrected versus NHE
Description: Voltammetric measurements were carried out with a potentiostat Autolab PGSTAT100 (ECO Chemie, Utrecht, The Netherlands) controlled by GPES 4.09 software (ECO Chemie, Utrecht, The Netherlands). Experiments were performed at room temperature in a homemade airtight three–electrode cell connected to a vacuum/argon line. The reference electrode consisted of a saturated calomel electrode (SCE) separated from the solution by a bridge compartment. The counter electrode was a platinum wire of 1 cm^2 apparent surface. The working electrode was a GC microdisk (1.0 mm in diameter–Bio-logic SAS). The supporting electrolyte (nBu4N)[PF6] (Fluka, 99% puriss electrochemical grade) and the solvent DMSO (Sigma-Aldrich puriss p.a. dried <0.02% water) were used as received and simply degassed under argon. The solutions used during electrochemical analyses were typically 10^−3 M in compound and 0.1 M in supporting electrolyte. Before each measurement, the solutions were degassed by bubbling Ar, and the working electrode was polished with a polishing machine (Presi P230, Eybens, France). Under the experimental conditions adopted in this work, the half-wave potential (E1/2) of the ferrocene Fc+/Fc couple in DMSO was E1/2 = 0.45 V vs. SCE. Experimental peak potentials were measured versus SCE and converted to NHE by adding 0.241 V.

[5] = system: L. donovani promastigotes; assay: Antileishmanial activity against L. donovani promastigotes (MTT assay); type: cell-based; details: Leishmania donovani; promastigotes, 72 h, MTT; read-out: EC50 L. donovani Pro.

O=[N+]([O-])c1c(CS(=O)(=O)c2ccccc2)nc2c(Br)cc(Cl)cn12 [Hit A, 8-Bromo-6-chloro-3-nitro-2-(phenylsulfonylmethyl)imidazo[1,2-a]pyridine, reference compound]
CC50 at 72 h [1]: > 15.6 µM
EC50 [2]: 16.4 ± 1.3 µM
EC50 [3]: 2.1 ± 0.1 µM
E0 (redox potential of the nitro group) [4]: −0.65 V
EC50 [5]: 5.3 ± 1.1 µM
